Measured values as given in ChEMBL document CHEMBL1138413, “Development of SPECT imaging agents for the norepinephrine transporters: [123I]INER” (Bioorg Med Chem Lett, 2007).

What was measured:
[1] = target: Sodium-dependent dopamine transporter (Rattus norvegicus, UniProt P23977); assay: Displacement of [3H]GBR from DAT in rat brain membranes; format: cell membranes
[2] = target: Sodium-dependent serotonin transporter (Rattus norvegicus, UniProt P31652); assay: Displacement of [3H]paroxetine from SERT in brain membranes; format: cell membranes, Membrane
[3] = target: Norepinephrine transporter (Rattus norvegicus, UniProt Q9WTR4); assay: Displacement of [3H]nisoxetine from NET in rat brain membranes; format: cell membranes
Brain = assay: Drug uptake in olive baboon brain at 7.89 mCi after 10 mins; format: ADME, tissue-based; settings: papio anubis, in vivo
[4] = Lipophilicity, log D at pH 7.4; format: physicochemical; settings: buffer
[5] = target: Sodium-dependent serotonin transporter (Rattus norvegicus) (UniProt P31652); assay: Inhibition of SERT in rat brain membrane at 10 uM; format: cell membranes
Sodium-dependent serotonin transporter (Rattus norvegicus), sequence (P31652 whole entry): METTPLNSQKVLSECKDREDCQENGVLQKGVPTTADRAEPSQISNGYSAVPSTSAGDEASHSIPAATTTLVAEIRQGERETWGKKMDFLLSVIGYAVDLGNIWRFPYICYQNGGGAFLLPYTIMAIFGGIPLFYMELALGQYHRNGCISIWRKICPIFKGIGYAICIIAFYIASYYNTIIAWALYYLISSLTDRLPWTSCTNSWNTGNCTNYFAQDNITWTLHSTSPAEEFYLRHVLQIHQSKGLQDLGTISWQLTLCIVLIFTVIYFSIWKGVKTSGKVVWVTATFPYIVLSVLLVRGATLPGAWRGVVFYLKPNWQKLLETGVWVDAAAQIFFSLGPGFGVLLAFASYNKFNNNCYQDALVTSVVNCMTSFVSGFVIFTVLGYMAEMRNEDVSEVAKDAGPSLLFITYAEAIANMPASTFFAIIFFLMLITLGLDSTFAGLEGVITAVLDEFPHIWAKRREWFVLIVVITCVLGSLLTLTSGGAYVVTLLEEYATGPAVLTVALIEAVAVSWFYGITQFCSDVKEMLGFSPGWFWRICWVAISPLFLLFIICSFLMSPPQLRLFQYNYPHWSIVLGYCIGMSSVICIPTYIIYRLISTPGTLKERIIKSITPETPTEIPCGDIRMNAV

Norepinephrine transporter, sequence (Q9WTR4 whole entry): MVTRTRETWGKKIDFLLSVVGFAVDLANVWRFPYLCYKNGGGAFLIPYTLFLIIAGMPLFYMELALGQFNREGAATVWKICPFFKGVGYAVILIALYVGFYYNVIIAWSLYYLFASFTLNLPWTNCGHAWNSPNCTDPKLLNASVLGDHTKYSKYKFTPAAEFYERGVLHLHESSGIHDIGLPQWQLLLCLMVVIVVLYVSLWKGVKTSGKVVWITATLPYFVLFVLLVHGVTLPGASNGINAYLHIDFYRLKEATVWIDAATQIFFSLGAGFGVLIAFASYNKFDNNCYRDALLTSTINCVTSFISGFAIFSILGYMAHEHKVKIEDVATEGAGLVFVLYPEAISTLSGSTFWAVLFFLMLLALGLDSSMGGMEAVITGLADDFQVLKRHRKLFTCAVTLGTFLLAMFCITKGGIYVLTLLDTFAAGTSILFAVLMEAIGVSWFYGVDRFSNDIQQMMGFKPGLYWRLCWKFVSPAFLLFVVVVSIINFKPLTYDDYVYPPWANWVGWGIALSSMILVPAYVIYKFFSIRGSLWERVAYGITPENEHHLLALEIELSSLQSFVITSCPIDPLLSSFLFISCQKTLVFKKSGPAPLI
Sodium-dependent dopamine transporter, sequence (P23977 whole entry): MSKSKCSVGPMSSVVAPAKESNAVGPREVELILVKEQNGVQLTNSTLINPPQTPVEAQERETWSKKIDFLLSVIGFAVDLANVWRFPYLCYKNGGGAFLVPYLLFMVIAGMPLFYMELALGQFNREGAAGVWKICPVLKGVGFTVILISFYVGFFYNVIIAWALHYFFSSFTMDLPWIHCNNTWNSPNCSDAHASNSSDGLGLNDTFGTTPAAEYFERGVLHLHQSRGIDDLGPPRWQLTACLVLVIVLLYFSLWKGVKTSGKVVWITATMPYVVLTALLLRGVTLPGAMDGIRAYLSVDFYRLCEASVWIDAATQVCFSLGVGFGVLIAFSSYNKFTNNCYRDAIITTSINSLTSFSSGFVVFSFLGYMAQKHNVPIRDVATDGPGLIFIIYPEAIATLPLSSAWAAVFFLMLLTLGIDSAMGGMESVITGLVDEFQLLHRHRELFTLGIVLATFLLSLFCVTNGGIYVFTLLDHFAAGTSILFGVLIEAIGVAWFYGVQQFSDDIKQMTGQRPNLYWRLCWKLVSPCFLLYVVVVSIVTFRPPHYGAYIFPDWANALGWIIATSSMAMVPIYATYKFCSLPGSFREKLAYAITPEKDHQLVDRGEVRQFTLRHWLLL
Sodium-dependent serotonin transporter, sequence (P31652 whole entry): as the sequence (P31652 whole entry) above

Row | Compound | Ki [1] [nM] | Ki [2] [nM] | Ki [3] [nM] | Drug uptake (Brain) [%ID] | logD [4] | inhibition [5] [%]
1 | Ic1ccccc1O[C@@H](c1ccccc1)[C@@H]1CNCCO1 | 228 | 40.4 | 0.84 |  |  | 
2 | [125I]c1ccccc1O[C@@H](c1ccccc1)[C@@H]1CNCCO1 |  |  |  | 1 | 2.6 | 
3 | COc1ccccc1COC(c1cccc(I)c1)C1CNCCO1 (racemic) | 716 | 351 | 73.8 |  |  | 
4 | Cc1ccccc1OC(c1ccc(I)s1)C1CNCCO1 (racemic) | 186 |  | 71.9 |  |  | 31
5 | COc1ccccc1OC(c1ccc(I)s1)C1CNCCO1 (racemic) | 210 | 141 | 79.6 |  |  | 
6 | O=[N+]([O-])c1ccccc1COC(c1cccc(I)c1)C1CNCCO1 (racemic) | 14.2 | 252 | 70.4 |  |  | 
7 | COc1ccccc1OC(c1cccc(I)c1)C1CNCCO1 (racemic) | > 10000 |  | 15.4 |  |  | 12
8 | CCOc1ccccc1OC(c1cccc(I)c1)C1CNCCO1 (racemic) | 3140 |  | 28.5 |  |  | 44
9 | Ic1ccccc1OC(c1ccccc1)C1CNCCO1 (racemic) | 410 |  | 2.47 |  |  | 40
10 | FC(F)(F)c1ccccc1OC(c1cccc(I)c1)C1CNCCO1 (racemic) | 1870 | 486 | 101 |  |  | 
11 | Cc1ccccc1OC(c1cccc(I)c1)C1CNCCO1 (racemic) | 740 |  | 27.6 |  |  | 24
